From patent US20250333733A1, “NOVEL TARGETS AGAINST OVARIAN CANCER” (UNIVERSITY OF PUERTO RICO, priority 2022, published 2025)

Test system: OVCAR3CIS cells
Test: Western blot of apoptotic-related and cell-cycle related proteins
Type: cell-based
Settings: vs NC-siRNA
Procedure: Cell pellets were lysed with complete lysis buffer and total protein concentration […]. Protein samples were separated by SDS-PAGE, blotted onto nitrocellulose membranes, blocked in either 5% non-fat dry milk (Bio-Rad) or 5% BSA (HyClone), and probed with the appropriate dilution of corresponding primary antibody. Membranes were rinsed and incubated with corresponding HRP-conjugated secondary antibody, followed by enhanced chemiluminescence and autoradiography.

Substance: CASC10-siRNA (2): siRNA targeting CASC10 RNA, SEQ ID NO 3 and 4: 5′ GACUCUUGGAUCCAAGUUU(dT)(dT) 3′ / 5′ AAACUUGGAUCCAAGAGUC(dT)(dT) 3′ (chain 1 GACUCUUGGAUCCAAGUUUNN; chain 2 AAACUUGGAUCCAAGAGUCNN; 3' dTdT overhangs, chemistry not fully specified)
- Bcl-2 protein: strong reduction
- CDK4 protein: reduction
- Cyclin E1 protein: reduction
- cleaved Caspase-3 protein: significant increase
- cleaved Caspase-9 protein: significant increase
- cleaved PARP-1 protein: significant increase
- p27 protein levels: reduction
